The results in this text go back to patent US7598377B2, “Inhibition of phosphoinositide 3-kinase β” (AstraZeneca AB, priority 2002, dated 2009).

The assay has as its target T1, p110α-PI3K (Homo sapiens, UniProt P42336).
T1 construct: The α and β isoforms of the PI3K were immunoprecipitated from a platelet lysate; from tissue; host or cells: washed platelets (lysate, immunoprecipitated with anti-p110α antibody)
The experiment in a line: In vitro enzyme assay, p110α immunoprecipitated from platelet lysate (Biological Example 1). It counts as biochemical. The procedure: For each immunoprecipitation, 1 mg of lysate was incubated with an anti-p110α (1 μg), anti-p110β (1 μg), anti-p110δ (1 μg) or anti-PI4 kinase antibody (2-5 μg) and 50 μl of a 50% slurry of protein A beads overnight at 4° C. […] For PI4 kinase assays, protein A beads-immune complexes were also washed twice with lysis buffer, prior to two washes with 1× PI4 kinase assay buffer (20 mM Hepes, pH 7.5, 10 mM MgCl2, 0.3% Triton X-100) and the addition of other assay constituents, as described above. All reactions were terminated by the addition of 100 μl 1 M HCl, 200 μl choloroform/methanol (1:1) and 500 μl 2 M KCl and lipids extracted by centrifugation at 15,000×g for 2 minutes. The production of PI3 or PI4 kinase lipid products, PtdIns(3)P and PtdIns(4)P, were confirmed through TLC analysis. The lipid spots were then removed from the TLC plate and the level of radioactivity quantified to accurately determine the level of PtdIns(3)P/PtdIns(4)P production.

Molecules are shown by their SMILES. Where two headings read alike, the source gives them in different places.

T1 sequence (P42336 whole entry, canonical isoform): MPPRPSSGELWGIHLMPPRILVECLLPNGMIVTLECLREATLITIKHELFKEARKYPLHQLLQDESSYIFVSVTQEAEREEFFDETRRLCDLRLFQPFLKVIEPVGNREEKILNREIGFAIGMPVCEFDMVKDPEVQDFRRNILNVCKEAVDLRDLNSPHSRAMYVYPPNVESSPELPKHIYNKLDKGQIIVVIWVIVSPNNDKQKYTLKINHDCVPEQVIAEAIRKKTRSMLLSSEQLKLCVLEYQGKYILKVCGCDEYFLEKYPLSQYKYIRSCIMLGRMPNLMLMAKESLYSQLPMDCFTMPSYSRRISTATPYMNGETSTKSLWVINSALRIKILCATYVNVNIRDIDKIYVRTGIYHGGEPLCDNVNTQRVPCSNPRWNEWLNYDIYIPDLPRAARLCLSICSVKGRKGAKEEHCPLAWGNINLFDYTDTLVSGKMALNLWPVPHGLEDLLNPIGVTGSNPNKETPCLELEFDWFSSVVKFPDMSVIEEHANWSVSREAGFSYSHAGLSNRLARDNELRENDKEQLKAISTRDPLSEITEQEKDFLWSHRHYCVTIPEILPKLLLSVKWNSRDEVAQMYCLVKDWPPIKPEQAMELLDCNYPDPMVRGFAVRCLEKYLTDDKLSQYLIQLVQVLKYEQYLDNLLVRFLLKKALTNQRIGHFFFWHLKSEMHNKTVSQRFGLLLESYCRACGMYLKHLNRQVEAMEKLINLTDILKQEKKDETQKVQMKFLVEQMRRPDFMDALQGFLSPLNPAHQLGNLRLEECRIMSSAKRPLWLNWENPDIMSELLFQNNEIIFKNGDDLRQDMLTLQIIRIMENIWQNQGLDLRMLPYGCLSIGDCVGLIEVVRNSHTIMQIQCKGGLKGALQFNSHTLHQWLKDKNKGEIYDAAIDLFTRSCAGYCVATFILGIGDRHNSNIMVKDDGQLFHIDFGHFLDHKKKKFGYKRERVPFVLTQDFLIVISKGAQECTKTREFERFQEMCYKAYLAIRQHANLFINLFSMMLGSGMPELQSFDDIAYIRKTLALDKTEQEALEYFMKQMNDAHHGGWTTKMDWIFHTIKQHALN
T1 sequence (P27986 whole entry partner, canonical isoform): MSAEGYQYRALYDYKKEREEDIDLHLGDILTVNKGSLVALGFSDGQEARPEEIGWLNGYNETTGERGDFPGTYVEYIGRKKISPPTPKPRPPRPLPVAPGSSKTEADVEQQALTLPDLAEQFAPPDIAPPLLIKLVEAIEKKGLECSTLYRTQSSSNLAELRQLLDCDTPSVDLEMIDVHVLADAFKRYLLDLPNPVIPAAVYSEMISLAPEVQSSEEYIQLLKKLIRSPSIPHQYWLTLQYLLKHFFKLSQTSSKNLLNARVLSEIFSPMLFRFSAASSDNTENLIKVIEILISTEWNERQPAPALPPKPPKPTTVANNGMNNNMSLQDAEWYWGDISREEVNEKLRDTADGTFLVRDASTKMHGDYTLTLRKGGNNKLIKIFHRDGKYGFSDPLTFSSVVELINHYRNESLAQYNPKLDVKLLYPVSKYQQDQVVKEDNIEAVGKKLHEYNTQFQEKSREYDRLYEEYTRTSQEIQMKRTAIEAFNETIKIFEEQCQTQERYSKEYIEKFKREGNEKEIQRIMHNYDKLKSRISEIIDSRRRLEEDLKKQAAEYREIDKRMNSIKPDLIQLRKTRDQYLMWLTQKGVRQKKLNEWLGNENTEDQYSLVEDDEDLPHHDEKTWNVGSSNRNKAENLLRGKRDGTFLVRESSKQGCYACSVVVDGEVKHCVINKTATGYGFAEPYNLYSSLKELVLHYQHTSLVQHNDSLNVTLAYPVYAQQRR

Consider `Cc1cc(C(C)Nc2ccccc2)c2nc(N3CCOCC3)cc(=O)n2c1` (racemic) [TGX-221, (±)-7-methyl-2-morpholin-4-yl-9-(1-phenylaminoethyl)-pyrido[1,2-a]pyrimidin-4-one], for which the IC50 was more than 5 µM (Table I, read-out: inhibitory concentration, alpha) and 5 µM (read-out: IC50 (μM), p110α-PI3K).
